pIC50: −log10 of the molar value. Active and inactive are the calls of the source. The calls are words filed in the database; no cut-off is given here.
Legend:
[1] = tested on: Influenza A virus; test: Antiviral activity against Influenza A virus (A/Hong Kong/1/1968(H3N2)) infected in MDCK cells assessed as inhibition of virus-induced cytopathic effect at 50 uM after 48 hrs; format: functional; conditions: for inhibition at 50 µM: Influenza A virus, MDCK, 48 h
[2] = tested on: Influenza A virus; test: Antiviral activity against Influenza A virus J/8178/09 infected in MDCK cells assessed as inhibition of virus-induced cytopathic effect at 50 uM after 48 hrs; format: functional; conditions: for inhibition at 50 µM: Influenza A virus, J/8178/09, MDCK, 48 h
[3] = Cytotoxicity against MDCK cells after 72 hrs; format: cell-based, Canis lupus familiaris; conditions: dog
[4] = Inhibition of Clostridium perfringens neuraminidase by chemiluminescence based assay
[5] = Inhibition of Clostridium perfringens neuraminidase by fluorescence based assay
[6] = Induction of fluorescence quenching at 100 uM relative to 4-methylumbelliferone; format: physicochemical
[7] = Induction of fluorescence at 100 uM relative to 4-methylumbelliferone; format: physicochemical

SMILES	inhibition [1]	inhibition [2]	CC50 at 72 h [3]	inhibition (INH) [1]	inhibition (INH) [2]	pIC50 [4]	pIC50 [5]	Activity [6]	Activity [7]	inhibition at 50 µM [2]	inhibition at 50 µM [1]
O=C(/C=C/c1ccc(O)cc1)OC[C@]1(O)CO[C@H](O[C@H]2[C@H](Oc3ccc(/C=C/C(=O)c4ccc(O)cc4O)cc3)O[C@H](CO)[C@@H](O)[C@@H]2O)[C@H]1O	inactive	inactive	–	–	–	–	–	–	–	–	–
CC(C)=CCc1c(O)ccc(C(=O)/C=C/c2cc(O)c3c(c2)C=CC(C)(C)O3)c1O	–	–	135 µM	48.1%	29.7%	–	–	–	–	–	–
COc1ccc(-c2coc3cc(O)ccc3c2=O)cc1 [FORMONONETIN]	–	–	123 µM	–	–	6.47	4.87	-12.4%	15.4%	–	–
CC1(C)C=Cc2c(ccc3c2OCC(O)C3)O1 (configuration not stated)	inactive	–	336 µM	–	–	6.19	5.54	15%	0%	36.1%	–
CC1(C)C=Cc2c(ccc(-c3coc4cc(O)ccc4c3=O)c2O)O1 [GLABRONE]	–	–	90.8 µM	–	–	7.15	4.93	28.3%	0.68%	–	24.2%
O=C1C[C@@H](c2ccc(O)cc2)Oc2cc(O)ccc21 [LIQUIRTIGENIN]	inactive	inactive	301 µM	–	–	–	–	–	–	–	–
O=C1C[C@@H](c2ccc(O)cc2)Oc2cc(O[C@@H]3O[C@H](CO)[C@@H](O)[C@H](O)[C@H]3O)cc(O)c21 [PRUNIN]	inactive	–	126 µM	–	49.6%	–	–	–	–	–	–
CC1(C)C=Cc2c(ccc([C@@H]3COc4c(ccc5c4C=CC(C)(C)O5)C3)c2O)O1 [HISPAGLABRIDIN B]	–	–	39.2 µM	–	–	6.77	5.37	15.1%	0.05%	48.4%	31.2%
CCOC(=O)C1=C[C@@H](OC(CC)CC)[C@H](NC(C)=O)[C@@H](N)C1 [OSELTAMIVIR]	–	–	–	–	–	3.96	3.90	12.8%	0.05%	–	–
O=C1C[C@@H](c2ccc(O[C@@H]3O[C@H](CO)[C@@H](O)[C@H](O)[C@H]3O[C@H]3OC[C@@](O)(COC(=O)c4c[nH]c5ccccc45)[C@@H]3O)cc2)Oc2cc(O)ccc21	inactive	inactive	–	–	–	–	–	–	–	–	–
CC(C)=CCc1cc([C@@H]2CC(=O)c3ccc(O)c(CC=C(C)C)c3O2)ccc1O [GLABROL]	inactive	inactive	25.4 µM	–	–	6.89	5.66	37.4%	1.18%	–	–
O=C1C[C@@H](c2ccc(O[C@@H]3O[C@H](CO)[C@@H](O)[C@H](O)[C@H]3O)cc2)Oc2cc(O)ccc21 [LIQUIRITIN]	inactive	inactive	> 239 µM	–	–	–	–	–	–	–	–

From ChEMBL document CHEMBL3124906 (J Nat Prod, 2014)
